Experimental data taken from patent US4698344A, “1-Heteroaryl-4-aryl-pyrazolin-5-ones for use as medicaments” (priority 1984, dated 1987).
Where two headings read alike, the source gives them in different places.

Columns and labels:
12-lipoxygenase = biological target: T1, 12-lipoxygenase (Homo sapiens, UniProt P18054); test: Arachidonic acid metabolism in human platelets: 12-lipoxygenase activity; assay type: cell-based
T1 construct: washed human platelets; endogenous in cells; host or cells: washed human platelets
T1 sequence (P18054 1-663): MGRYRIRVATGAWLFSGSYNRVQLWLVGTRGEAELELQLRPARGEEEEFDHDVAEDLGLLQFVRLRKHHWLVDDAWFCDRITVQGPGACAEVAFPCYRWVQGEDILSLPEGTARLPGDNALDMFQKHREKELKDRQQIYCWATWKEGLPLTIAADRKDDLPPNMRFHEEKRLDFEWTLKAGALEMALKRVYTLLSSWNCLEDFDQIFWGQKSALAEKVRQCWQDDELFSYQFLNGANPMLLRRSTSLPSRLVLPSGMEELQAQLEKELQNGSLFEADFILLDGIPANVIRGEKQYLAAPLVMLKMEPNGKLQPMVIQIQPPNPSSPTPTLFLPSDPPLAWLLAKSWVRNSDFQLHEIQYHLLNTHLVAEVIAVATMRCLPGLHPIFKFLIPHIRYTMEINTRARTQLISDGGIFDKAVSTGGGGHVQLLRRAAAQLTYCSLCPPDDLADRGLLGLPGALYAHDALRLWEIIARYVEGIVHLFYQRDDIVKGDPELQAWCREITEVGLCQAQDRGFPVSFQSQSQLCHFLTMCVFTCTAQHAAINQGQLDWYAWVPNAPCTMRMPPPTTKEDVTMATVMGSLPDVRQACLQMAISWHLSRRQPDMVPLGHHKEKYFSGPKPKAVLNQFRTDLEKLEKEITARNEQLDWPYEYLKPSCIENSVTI
Description: (§1) The metabolism of radioactively labelled arachidonic acid on washed human platelets is utilised in this test method. In this in vitro test, the radioactively labelled metabolites are extracted from the reaction mixture and separated by thin layer chromatography. The autoradiogram is evaluated with a thin layer scanner. Under these test conditions, the labelled metabolites are separated from the unreacted arachidonic acid and can then be evaluated quantitatively.

cyclooxygenase [1] = biological target: T2, cyclooxygenase (Homo sapiens, UniProt P23219); test: Arachidonic acid metabolism in human platelets: cyclooxygenase activity; assay type: cell-based
T2 construct: washed human platelets; endogenous in cells; host or cells: washed human platelets
Description: as §1

5-lipoxygenase = biological target: T3, 5-lipoxygenase (Homo sapiens, UniProt P09917); test: Lipoxygenase activity (LTB4 synthesis) in human PMN leukocytes stimulated with A 23187; assay type: cell-based; settings: for inhibition at 10 µg/mL: read-out: Inhibition of LTB4 synthesis in human PMN's; for Effective threshold concentration, inhibition of LTB4 synthesis: human PMN's
T3 construct: endogenous in cells; host or cells: human polymorphonuclear leukocytes from heparinized whole blood
T3 sequence (P09917 1-674): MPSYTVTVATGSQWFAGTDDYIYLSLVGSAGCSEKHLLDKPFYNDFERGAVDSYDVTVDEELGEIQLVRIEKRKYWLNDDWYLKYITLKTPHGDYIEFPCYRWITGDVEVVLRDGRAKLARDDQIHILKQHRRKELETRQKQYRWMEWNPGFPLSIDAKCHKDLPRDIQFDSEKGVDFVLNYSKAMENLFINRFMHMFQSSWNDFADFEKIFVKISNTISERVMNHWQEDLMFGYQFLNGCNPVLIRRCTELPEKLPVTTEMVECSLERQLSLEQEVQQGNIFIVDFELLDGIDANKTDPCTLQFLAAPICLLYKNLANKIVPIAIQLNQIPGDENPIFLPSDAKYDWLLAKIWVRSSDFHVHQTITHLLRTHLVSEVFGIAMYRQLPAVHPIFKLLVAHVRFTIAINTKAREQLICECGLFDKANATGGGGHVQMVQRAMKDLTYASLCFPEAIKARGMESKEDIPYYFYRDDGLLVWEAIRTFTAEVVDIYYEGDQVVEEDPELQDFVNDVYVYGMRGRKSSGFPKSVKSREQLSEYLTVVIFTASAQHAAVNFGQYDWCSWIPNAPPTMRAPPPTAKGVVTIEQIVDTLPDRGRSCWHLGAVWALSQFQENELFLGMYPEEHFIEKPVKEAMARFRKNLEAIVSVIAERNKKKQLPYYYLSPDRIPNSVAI
Description: The polymorphonuclear leukocytes of humans metabolize arachidonic acid to give 5-hydroxy-5,8,11,14-eicosatetraenoic acid (5-HETE) and leukotriene B4 (5S, 12R-dihydroxy-6-cis, 8,10-trans-14ciseicosatetraenoic acid). Inhibition of the release of 5-HETE and leukotriene B4 from leukocytes is a measure of the lipoxygenase-inhibiting effect of the compounds according to the invention.
After 15 minutes, the lipoxygenase products were extracted from the acidified incubation medium and separated by means of HPLC.

[2] = test system: carrageenan-induced oedema of the rat paw; test: Carrageenan-induced oedema of the rat paw; assay type: in vivo; settings: for % inhibition of the carrageenan oedema: oral, 2.5 mg/kg, rats, 5 hours after oedema provocation
Description: The antiinflammatory action of the test substances following oral administration was determined with the aid of carrageenan-induced oedema of the rat paw.
The experiments were carried out with male rats, strain: Bor:WLSW (SPF-Cpb); weight 150 to 220 g. One hour before inducing the oedema (0.1 ml of carrageenan suspension/animal, subplantar injection), the substance to be tested was administered to the animals as a suspension in tragacanth with the aid of a stomach tube; as a control, a second group of animals was treated with tragacanth without the substance.
The paw volumes were measured by the method of F. Kemper and G. Ameln Z. exp.

cyclooxygenase [3] = settings: background statement; cited from earlier work
lipoxygenase = biological target: T4, lipoxygenase (Rattus norvegicus, UniProt P12527); test: Lipoxygenase activity in homogenates of RBL-1 cells; assay type: biochemical; settings: concentration 0.5-1 μg/ml; negative = inhibition
T4 construct: homogenates of RBL-1 cells; endogenous in cells; host or cells: RBL-1 (rat basophilic leukaemia) cells, homogenate
T4 sequence (P12527 1-673): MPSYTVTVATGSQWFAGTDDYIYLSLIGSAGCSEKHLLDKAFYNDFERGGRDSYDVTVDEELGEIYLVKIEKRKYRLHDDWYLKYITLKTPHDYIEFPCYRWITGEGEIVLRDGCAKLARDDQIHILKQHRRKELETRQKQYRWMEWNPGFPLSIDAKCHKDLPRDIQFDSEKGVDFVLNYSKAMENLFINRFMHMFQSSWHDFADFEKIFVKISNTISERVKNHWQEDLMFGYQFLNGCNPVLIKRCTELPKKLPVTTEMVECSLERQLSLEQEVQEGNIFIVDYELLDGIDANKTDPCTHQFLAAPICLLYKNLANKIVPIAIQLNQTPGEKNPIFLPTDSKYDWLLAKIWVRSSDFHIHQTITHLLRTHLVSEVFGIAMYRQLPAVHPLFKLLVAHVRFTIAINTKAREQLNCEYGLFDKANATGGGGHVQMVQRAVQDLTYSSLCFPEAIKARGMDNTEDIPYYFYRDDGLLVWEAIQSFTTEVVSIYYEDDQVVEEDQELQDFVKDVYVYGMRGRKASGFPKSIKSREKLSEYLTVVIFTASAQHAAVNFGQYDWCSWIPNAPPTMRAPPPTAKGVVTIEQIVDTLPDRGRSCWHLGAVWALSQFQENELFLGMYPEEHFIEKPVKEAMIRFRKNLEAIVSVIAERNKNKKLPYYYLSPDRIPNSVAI
Source text: (§2) Basophilic leukaemia cells from rats (RBL-1) synthesize both lipoxygenase and cyclooxygenase products from ^14 C-arachidonic acid with which they are supplied. […] The products formed were separated by thin layer chromatography and quantified in a scanner.

cyclooxygenase [4] = biological target: T5, cyclooxygenase (Rattus norvegicus, UniProt Q63921); test: Cyclooxygenase activity in homogenates of RBL-1 cells; assay type: biochemical; settings: concentration 0.5-1 μg/ml; negative = inhibition
T5 construct: homogenates of RBL-1 cells; endogenous in cells; host or cells: RBL-1 (rat basophilic leukaemia) cells, homogenate
T5 sequence (Q63921 27-602): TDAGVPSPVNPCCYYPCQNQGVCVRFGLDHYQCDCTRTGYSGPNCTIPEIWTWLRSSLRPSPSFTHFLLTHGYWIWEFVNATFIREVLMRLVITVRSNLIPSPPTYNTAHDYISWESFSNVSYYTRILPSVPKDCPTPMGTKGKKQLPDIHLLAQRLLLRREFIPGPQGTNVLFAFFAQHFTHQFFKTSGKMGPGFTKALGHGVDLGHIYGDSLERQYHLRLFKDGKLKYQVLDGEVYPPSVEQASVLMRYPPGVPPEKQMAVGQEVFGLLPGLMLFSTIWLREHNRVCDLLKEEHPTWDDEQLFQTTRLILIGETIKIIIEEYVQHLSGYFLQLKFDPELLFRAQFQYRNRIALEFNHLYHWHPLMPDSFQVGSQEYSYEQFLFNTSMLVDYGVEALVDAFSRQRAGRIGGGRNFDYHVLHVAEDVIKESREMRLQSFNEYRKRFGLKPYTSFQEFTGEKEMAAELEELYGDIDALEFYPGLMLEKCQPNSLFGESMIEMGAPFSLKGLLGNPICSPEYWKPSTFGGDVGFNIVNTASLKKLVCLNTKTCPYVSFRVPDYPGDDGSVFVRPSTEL
Source text: as §2

[5] = administered systemically (for example orally); cited from earlier work
[6] = test system: release of leukotrienes (SRS-A); test: Passive peritoneal anaphylaxis (rats); assay type: in vivo, rat; settings: 100 mg/kg perorally
Description: The effect of substances on the release of mediators, in particular the release of leukotrienes, is recorded with this in vivo method. […] Histamine is not released during this, so that the lipoxygenase-inhibiting action of test substances can be investigated selectively.

T2 sequence (P23219 24-599): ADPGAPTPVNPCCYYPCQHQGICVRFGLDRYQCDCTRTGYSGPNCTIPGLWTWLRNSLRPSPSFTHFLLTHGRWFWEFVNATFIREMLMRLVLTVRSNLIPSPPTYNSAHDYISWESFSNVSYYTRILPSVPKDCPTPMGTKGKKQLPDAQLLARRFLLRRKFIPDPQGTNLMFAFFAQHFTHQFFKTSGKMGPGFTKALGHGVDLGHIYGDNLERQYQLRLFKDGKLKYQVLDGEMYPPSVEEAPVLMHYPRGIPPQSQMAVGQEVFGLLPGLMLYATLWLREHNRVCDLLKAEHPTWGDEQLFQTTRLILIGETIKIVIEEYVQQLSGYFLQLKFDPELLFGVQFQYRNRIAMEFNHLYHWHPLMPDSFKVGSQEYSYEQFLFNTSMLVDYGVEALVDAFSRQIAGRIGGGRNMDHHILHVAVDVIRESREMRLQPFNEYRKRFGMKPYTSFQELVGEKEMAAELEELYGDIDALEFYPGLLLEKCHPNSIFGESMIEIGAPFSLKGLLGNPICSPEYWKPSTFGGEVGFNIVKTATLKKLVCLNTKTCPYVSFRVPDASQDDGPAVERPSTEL

SMILES: Cc1[nH]n(-c2ccc(Cl)cn2)c(=O)c1-c1ccccc1 [Example 63]
- Inhibition (threshold concentration), 12-lipoxygenase (12-lipoxygenase): 1 to 10 µg/mL
- Inhibition (threshold concentration), cyclooxygenase (cyclooxygenase [1]): 1 to 10 µg/mL
- inhibition at 10 µg/mL (5-lipoxygenase; at 10 μg/ml): 100%
- Effective threshold concentration, inhibition of LTB4 synthesis (5-lipoxygenase): 1 to 10 µg/mL

SMILES: O=c1c(-c2ccccc2)c[nH]n1-c1ccc([N+](=O)[O-])cn1 [Example 69]
- % inhibition of the carrageenan oedema [2]: 34%

SMILES: CCCCCC#CCC#CCC#CCC#CCCCC(=O)O [5,8,11,14-eicosatetraynoic acid]
- cyclooxygenase activity / potency of known lipoxygenase inhibitors (in words) (cyclooxygenase [3]): either simultaneously active as cyclooxygenase inhibitors or active only at very high concentrations

SMILES: COc1ccc(-c2c[nH]n(-c3ncccn3)c2=O)cc1 [Example 113]
- Action on lipoxygenase (LO): Effect (lipoxygenase): -71%
- Action on cyclooxygenase (CO): Effect (cyclooxygenase [4]): -11%

SMILES: COc1ccc(-c2c[nH]n(-c3ccccn3)c2=O)cc1 [Example 18]
- % inhibition of the carrageenan oedema [2]: 22%

SMILES: O=c1c(-c2ccccc2)c[nH]n1-c1ncccn1 [Example 103, 1-pyrimid-2-yl-4-phenyl-pyrazolin-5-one]
- Action on lipoxygenase (LO): Effect (lipoxygenase): -42%

SMILES: O=C1CCN(c2ccccc2)N1 [phenidone]
- cyclooxygenase activity / potency of known lipoxygenase inhibitors (in words) (cyclooxygenase [3]): either simultaneously active as cyclooxygenase inhibitors or active only at very high concentrations

SMILES: NC1=NN(c2cccc(C(F)(F)F)c2)CC1 [BW 755C, 3-amino-1-(3-trifluoromethylphenyl)-pyrazoline]
- toxic side effects (in words) [5]: toxic side effects

SMILES: O=c1c(-c2ccccc2)c[nH]n1-c1ncc(Cl)cn1 [Example 130]
- % inhibition of the carrageenan oedema [2]: 38%

SMILES: Cc1[nH]n(-c2ccccn2)c(=O)c1-c1ccccc1 [Example 49]
- % inhibition of the carrageenan oedema [2]: 16%

SMILES: O=c1c(-c2ccc(C(F)(F)F)cc2)c[nH]n1-c1ncc(Cl)cn1 [Example 135]
- % inhibition of the carrageenan oedema [2]: 46%

SMILES: O=c1c(-c2ccccc2)c[nH]n1-c1ccccn1 [Example 7, 1-pyrid-2-yl-4-phenyl-pyrazolin-5-one]
- Action on lipoxygenase (LO): Effect (lipoxygenase): -66%
- inhibition at 10 µg/mL (5-lipoxygenase): 92%
- ED50 ([2]; Rattus norvegicus, po, 5 h, read-out: ED50 of oedema inhibition): 9.1 mg/kg
- % inhibition of the carrageenan oedema [2]: 44%
- Action on cyclooxygenase (CO): Effect (cyclooxygenase [4]): +28%
- % inhibition, passive peritoneal anaphylaxis [6]: 65%

SMILES: COc1ccccc1-c1c[nH]n(-c2ccc(Cl)cn2)c1=O [Example 58]
- Action on lipoxygenase (LO): Effect (lipoxygenase): -66%
- Action on cyclooxygenase (CO): Effect (cyclooxygenase [4]): -17%

SMILES: O=c1c(-c2ccc(C(F)(F)F)cc2)c[nH]n1-c1ccccn1 [Example 28]
- Action on lipoxygenase (LO): Effect (lipoxygenase): -58%
- % inhibition of the carrageenan oedema [2]: 21%
- Action on cyclooxygenase (CO): Effect (cyclooxygenase [4]): +5%

SMILES: Cc1cccc(-c2c[nH]n(-c3ccccn3)c2=O)c1 [Example 25]
- % inhibition, passive peritoneal anaphylaxis [6]: 64%

SMILES: O=c1c(-c2ccccc2F)c[nH]n1-c1ncccn1 [Example 104]
- Action on lipoxygenase (LO): Effect (lipoxygenase): -46%
- Action on cyclooxygenase (CO): Effect (cyclooxygenase [4]): +23%

SMILES: O=c1c(-c2ccc(Cl)c(Cl)c2)c[nH]n1-c1ccccn1 [Example 16]
- Inhibition (threshold concentration), 12-lipoxygenase (12-lipoxygenase): 1 to 10 µg/mL
- Inhibition (threshold concentration), cyclooxygenase (cyclooxygenase [1]): 1 to 10 µg/mL
- Action on lipoxygenase (LO): Effect (lipoxygenase): -76%
- inhibition at 10 µg/mL (5-lipoxygenase; at 10 μg/ml): 85%
- Effective threshold concentration, inhibition of LTB4 synthesis (5-lipoxygenase): 1 to 10 µg/mL
- Action on cyclooxygenase (CO): Effect (cyclooxygenase [4]): -19%

SMILES: CC(Cc1ccc(O)c(O)c1)C(C)Cc1ccc(O)c(O)c1 (stereo not drawn) [nordihydroguaretic acid]
- cyclooxygenase activity / potency of known lipoxygenase inhibitors (in words) (cyclooxygenase [3]): either simultaneously active as cyclooxygenase inhibitors or active only at very high concentrations

SMILES: O=c1c(-c2cccc(C(F)(F)F)c2)c[nH]n1-c1ccccn1 [Example 27]
- % inhibition, passive peritoneal anaphylaxis [6]: 47%

SMILES: O=c1c(-c2ccccc2F)c[nH]n1-c1ccccn1 [Example 8]
- Inhibition (threshold concentration), 12-lipoxygenase (12-lipoxygenase): 1 to 10 µg/mL
- Inhibition (threshold concentration), cyclooxygenase (cyclooxygenase [1]): 1 to 10 µg/mL
- Action on lipoxygenase (LO): Effect (lipoxygenase): -73%
- inhibition at 10 µg/mL (5-lipoxygenase; at 10 μg/ml): 71%
- Effective threshold concentration, inhibition of LTB4 synthesis (5-lipoxygenase): 1 to 10 µg/mL
- Action on cyclooxygenase (CO): Effect (cyclooxygenase [4]): +3%

SMILES: Cc1ccccc1-c1c[nH]n(-c2ccccn2)c1=O [Example 24]
- Action on lipoxygenase (LO): Effect (lipoxygenase): -34%
- Action on cyclooxygenase (CO): Effect (cyclooxygenase [4]): -2%
